# In patent publication US20110003689A1, “USE OF POLYMERIC GUANIDINE DERIVATIVES FOR THE CONTROL OF UNWANTED MICROORGANISMS IN CROP PROTECTION” (AKA TECHNOLOGY GMBH, priority 2007, published 2011):
# Where a name gives a salt, the structure may show the parent alone. Read-outs that look alike come from different tables or passages of the source.
# Legend:
# Pyrenophora teres = Pyrenophora teres test (barley)/curative (Example U); assay type: in vivo
# [1] = system: Blumeria graminis f. sp. hordei; assay: Blumeria graminis test (barley)/curative (Example P); assay type: in vivo; conditions: 168 h, read-out: Efficacy in % found
# Venturia inaequalis = assay: Venturia test (apple)/protective, combinations (Example L)
# Procedure: After the spray coating has dried on, the plants are inoculated with an aqueous conidia suspension of the apple scab pathogen Venturia inaequalis and then remain in an incubation cabin at about 20° C. and 100% relative atmospheric humidity for 1 day. The plants are then placed in a greenhouse at about 21° C. and a relative atmospheric humidity of about 90%. Evaluation is carried out 10 days after inoculation.
# Botrytis cinerea = assay: Botrytis test (bean)/protective (Example N)
# Procedure: After the spray coating has dried on, 2 small pieces of agar colonized by Botrytis cinerea are placed onto each leaf. The inoculated plants are placed in a dark chamber at about 20° C. and 100% relative atmospheric humidity. 2 days after the inoculation, the size of the infected areas on the leaves is evaluated.
# Puccinia triticina = Puccinia triticina test (wheat)/curative (Example T); assay type: in vivo
# Fusarium graminearum = assay type: in vivo; conditions: 500 ppm
# Alternaria solani = assay: Alternaria test (tomato)/protective, combinations (Example M); assay type: in vivo
# [2] = system: Blumeria graminis f. sp. hordei; assay: Blumeria graminis test (barley)/protective (Example O); assay type: in vivo; conditions: 125 ppm
# Procedure: [table] […] Evaluation is carried out 7 days after inoculation.
# Plasmopara viticola = assay: Plasmopara test (grapevine)/protective, combinations (Example K); assay type: in vivo
# Leptosphaeria nodorum [3] = assay: Leptosphaeria nodorum test (wheat)/curative (Example R); assay type: in vivo; conditions: 62.5 ppm
# Leptosphaeria nodorum [4] = assay: Leptosphaeria nodorum test (wheat)/protective (Example Q); assay type: in vivo; conditions: 62.5 ppm
# Phytophthora infestans = assay type: in vivo
# [5] = Alternaria solani, 72 h, read-out: Efficacy in % found
molecule,measurement,setting,value
"Fc1ccc([C@]2(Cn3cncn3)O[C@H]2c2ccccc2Cl)cc1 (racemic) [(B-12) epoxiconazole, epoxiconazole]",Efficacy in % found,Pyrenophora teres; 500 ppm,78%
"CC(C)(C)C(O)C(Oc1ccc(-c2ccccc2)cc1)n1cncn1 (centres unmarked) [(B-3) bitertanol, bitertanol]",pest or weed control at 500 ppm,[1]; 500 ppm,63%
same,Efficacy in % found,Venturia inaequalis; 2.5 ppm,63%
"CC1COC(Cn2cncn2)(c2ccc(Oc3ccc(Cl)cc3)cc2Cl)O1 (centres unmarked) [(B-7) difenoconazole, difenoconazole]",pest or weed control at 250 ppm,[1],78%
"CC1(C(=O)Nc2ccc(O)c(Cl)c2Cl)CCCCC1 [(B-16) fenhexamid, fenhexamid]",Efficacy in % found,Botrytis cinerea; 2.5 ppm,0%
"C=CCOC(Cn1ccnc1)c1ccc(Cl)cc1Cl (centres unmarked) [(B-26) imazalil, imazalil]",Efficacy in % found,Puccinia triticina; 500 ppm,83%
"CCCN(CCOc1c(Cl)cc(Cl)cc1Cl)C(=O)n1ccnc1 [(B-39) prochloraz, prochloraz]",Efficacy in % found,Fusarium graminearum,63%
"OC(Cc1ccccc1Cl)(Cn1nc[nH]c1=S)C1(Cl)CC1 (centres unmarked) [(B-41) prothioconazole, prothioconazole]",pest or weed control at 5 ppm,Alternaria solani; [5],1%
same,Efficacy in % found,Pyrenophora teres; 125 ppm,78%
"CCCN(CC)CC1COC2(CCC(C(C)(C)C)CC2)O1 (centres unmarked) [(B-46) spiroxamine, spiroxamine]",Efficacy in % found,Puccinia triticina; 1000 ppm,40%
"CC(C)(C)C(O)(CCc1ccc(Cl)cc1)Cn1cncn1 (centres unmarked) [(B-47) tebuconazole, tebuconazole]",pest or weed control at 5 ppm,Alternaria solani; [5],29%
same,Efficacy in % found,Pyrenophora teres; 250 ppm,60%
"CCCCCCCCCCCCCN1CC(C)OC(C)C1 (centres unmarked) [(B-52) tridemorph, tridemorph]",pest or weed control at 250 ppm,[1],75%
"Cn1cc(C(=O)Nc2ccc(F)cc2-c2ccc(Cl)c(Cl)c2)c(C(F)F)n1 [(C-2) bixafen, N-(3′,4′-dichloro-5-fluoro-1,1′-biphenyl-2-yl)-3-(difluoromethyl)-1-methyl-1H-pyrazole-4-carboxamide]",pest or weed control at 1.25 ppm,"Alternaria solani; Alternaria solani, 72 h, 1.25 ppm, read-out: Efficacy in % found",49%
same,pest or weed control at 500 ppm,[1]; 500 ppm,63%
"O=C(Nc1ccccc1-c1ccc(Cl)cc1)c1cccnc1Cl [(C-3) boscalid, boscalid]",Efficacy in % found,Venturia inaequalis; 5 ppm,36%
"O=C(NCCc1ncc(C(F)(F)F)cc1Cl)c1ccccc1C(F)(F)F [(C-6) fluopyram, N-{2-[3-chloro-5-(trifluoromethyl)pyridin-2-yl]ethyl}-2-(trifluoromethyl)benzamide]",pest or weed control at 2.5 ppm,Alternaria solani; [5],23%
"CC(C)CC(C)c1sccc1NC(=O)c1cn(C)nc1C(F)(F)F (centres unmarked) [(C-12) penthiopyrad, penthiopyrad]",pest or weed control at 250 ppm,[1],88%
same,Efficacy in % found,Venturia inaequalis; 5 ppm,60%
"Cc1nn(C)c(F)c1C(=O)Nc1ccccc1C(C)CC(C)C (centres unmarked) [(C-14), N-[2-(1,3-dimethylbutyl)phenyl]-5-fluoro-1,3-dimethyl-1H-pyrazole-4-carboxamide]",pest or weed control at 2.5 ppm,Alternaria solani; [5],0%
same,pest or weed control at 250 ppm,[1],67%
"Cn1cc(C(=O)Nc2ccccc2OC(F)(F)C(F)F)c(C(F)F)n1 [(C-19), 3-(difluoromethyl)-1-methyl-N-[2-(1,1,2,2-tetrafluoroethoxy)phenyl]-1H-pyrazole-4-carboxamide]",Efficacy in % found,[2],78%
same,Efficacy in % found,Venturia inaequalis; 5 ppm,35%
"CC(C)C1C2CCC1c1c(NC(=O)c3cn(C)nc3C(F)F)cccc12 (centres unmarked) [(C-41) isopyrazam, 3-(difluoromethyl)-1-methyl-N-[1,2,3,4-tetrahydro-9-(1-methylethyl)-1,4-methanonaphthalen-5-yl]-1H-pyrazole-4-carboxamide]",pest or weed control at 500 ppm,[1],78%
"CSC1=N[C@@](C)(c2ccccc2)C(=O)N1Nc1ccccc1 [(D-2) fenamidone, fenamidone]",Efficacy in % found,Plasmopara viticola; 1 ppm,19%
"CO/C=C(/C(=O)OC)c1ccccc1Oc1cc(Oc2ccccc2C#N)ncn1 [(D-4) azoxystrobin, azoxystrobin]",Efficacy in % found,Leptosphaeria nodorum [3],60%
"CO/N=C(/C1=NOCCO1)c1ccccc1Oc1ncnc(Oc2ccccc2Cl)c1F [(D-8) fluoxastrobin, fluoxastrobin]",pest or weed control at 5 ppm,Alternaria solani; [5],35%
same,pest or weed control at 500 ppm,[1]; 500 ppm,78%
"COC(=O)N(OC)c1ccccc1COc1ccn(-c2ccc(Cl)cc2)n1 [(D-13) pyraclostrobin, pyraclostrobin]",pest or weed control at 5 ppm,Alternaria solani; [5],49%
same,Efficacy in % found,Leptosphaeria nodorum [4],94%
"CON=C(C(=O)OC)c1ccccc1CON=C(C)c1cccc(C(F)(F)F)c1 [(D-15) trifloxystrobin, trifloxystrobin]",pest or weed control at 5 ppm,Alternaria solani; [5],40%
same,Efficacy in % found,Puccinia triticina; 500 ppm,83%
"O=C(NCc1ncc(C(F)(F)F)cc1Cl)c1c(Cl)cccc1Cl [(E-6) fluopicolide, fluopicolide]",Efficacy in % found,Phytophthora infestans; 2 ppm,9%
"N#Cc1c(Cl)c(Cl)c(Cl)c(C#N)c1Cl [(F-4) chlorothalonil, chlorothalonil]",Efficacy in % found,Pyrenophora teres; 1000 ppm,30%
"Cc1cc(C)nc(Nc2ccccc2)n1 [(G-10) pyrimethanil, pyrimethanil]",Efficacy in % found,Botrytis cinerea; 12.5 ppm,13%
"CC(C)[C@H](NC(=O)O)C(=O)N[C@H](C)c1nc2ccc(F)cc2s1 [(G-15) benthiavalicarb, benthiavalicarb]",Efficacy in % found,Phytophthora infestans; 0.5 ppm,23%
"COc1ccc(C(=CC(=O)N2CCOCC2)c2ccc(Cl)cc2)cc1OC [(G-16) dimethomorph, dimethomorph]",Efficacy in % found,Plasmopara viticola; 1 ppm,0%
"Cc1ccc(C(C)NC(=O)[C@@H](NC(=O)OC(C)C)C(C)C)cc1 (some centres unmarked) [(G-18) iprovalicarb, iprovalicarb]",Efficacy in % found,Phytophthora infestans; 2 ppm,30%
same,Efficacy in % found,Plasmopara viticola; 0.5 ppm,0%
"CC(C)NC(=O)N1CC(=O)N(c2cc(Cl)cc(Cl)c2)C1=O [(G-31) iprodione, iprodione]",Efficacy in % found,Botrytis cinerea; 12.5 ppm,11%
"CCCOC(=O)NCCCN(C)C [(G-35) propamocarb hydrochloride, propamocarb hydrochloride]",Efficacy in % found,Phytophthora infestans; 100 ppm,0%
same,Efficacy in % found,Plasmopara viticola; 400 ppm,0%
"COCC(=O)N(c1c(C)cccc1C)[C@H](C)C(=O)OC [(G-55) metalaxyl-M, metalaxyl-M]",Efficacy in % found,Phytophthora infestans; 2.5 ppm,10%
"N#Cc1c[nH]cc1-c1cccc2c1OC(F)(F)O2 [(G-60) fludioxonil, fludioxonil]",Efficacy in % found,Pyrenophora teres; 250 ppm,78%
"O=[N+]([O-])c1cc(C(F)(F)F)c(Cl)c([N+](=O)[O-])c1Nc1ncc(C(F)(F)F)cc1Cl [(G-64) fluazinam, fluazinam]",Efficacy in % found,Plasmopara viticola; 5 ppm,0%
"CCNC(=O)NC(=O)/C(C#N)=N/OC [(G-73) cymoxanil, cymoxanil]",Efficacy in % found,Plasmopara viticola; 50 ppm,0%
"CCO[PH](=O)O [(G-86) fosetyl-Al, fosetyl-Al]",Efficacy in % found,Plasmopara viticola; 200 ppm,0%
"OP(O)O [(G-101) phosphorous acid, phosphorous acid]",Efficacy in % found,Plasmopara viticola; 400 ppm,30%
mancozeb [(F-20) mancozeb],Efficacy in % found,Phytophthora infestans; 25 ppm,20%
same,Efficacy in % found,Plasmopara viticola; 100 ppm,5%
same,Efficacy in % found,Alternaria solani; 50 ppm,31%
propineb [(F-24) propineb],Efficacy in % found,Phytophthora infestans; 100 ppm,15%
same,Efficacy in % found,Plasmopara viticola; 100 ppm,51%
